Source: US20060234276A1, “Methods of treatment of type 2 diabetes” (priority 1998, published 2006)
Square brackets hold non-standard residues; d marks the D form. Peptide text beside a SMILES is read from it. * marks the point of attachment. Sta = CC(C)C[C@H](N)[C@@H](O)CC(=O)O; Isovaleryl = CC(C)CC(=O)*

How the values were obtained:
mouse pancreatic islets = assay: Static incubation of isolated pancreatic islets, insulin secretion; assay type: cell-based; conditions: for insulin secretory responses to 20 mM glucose in presence of other protease inhibitors: 100 μM inhibitor; for effect on basal or glucose-stimulated insulin secretion: 100 μM Cathepsin B Inhibitor II, 20 μM Lactacystin
Protocol: Static incubation of isolated pancreatic islets. Isolation of mouse pancreatic islets was accomplished using collagenase digestion as previously described (Pontoglio et al., 1998). […] Triplicate groups of 5 islets were then incubated in borosilicate tubes containing 1 ml of KRB with the same concentration of inhibitor and various insulin secretagogues for one hour in a moving water bath at 37° C. The reaction was stopped by placing the tubes on ice and an aliquot of the buffer was removed for measurement of insulin levels. Control studies, in which the incubation mixture contained vehicle (0.1% DMSO) only, were performed using aliquots of the same batch of islets
Assay methods. Insulin concentrations were measured by a double antibody radioimmunoassay using a rat insulin standard. The intra-assay coefficient of variation for this technique is 7%. All samples were assayed in duplicate.

perifused mouse islets = assay: Insulin secretion from perifused islets; assay type: cell-based; conditions: 4 hr preincubation; 100 μM ALLM, 200 μM E-64-d
Protocol: Insulin secretion from perifused islets. Insulin secretion from perifused islets was measured using a modification of a previously described protocol (Pontoglio et al., 1998; Sreenan et al., 1998).

isolated β-cells = assay: Membrane capacitance recordings (exocytosis) in isolated β-cells; assay type: cell-based, mouse; conditions: 4 days culture with inhibitor
Protocol: Isolation of pancreatic β-cells. Single β-cells were obtained from isolated islets dispersed by gentle trituration (120 strokes through a 200 μl pipette tip) in Ca^2+ and Mg^2+-free PBS containing […]. Cells were plated on glass coverslips and maintained in culture in RPMI containing 11.6 mM glucose for 48-96 hr.
Capacitance recordings. Capacitance measurements were made with the phase-tracking technique in which a 60 mV peak-to-peak sine wave was superimposed on a holding potential of −80 mV as previously described. Conductance and capacitance values were continuously generated and recorded. The whole-cell capacitance was canceled with the slow capacitance compensation; unbalancing the slow capacitance compensation by 100 fF provided the capacitance calibration signal used to calculate changes in membrane capacitance. The sinusoidal voltage template was interrupted to deliver depolarizations to a cell. Beta cells were stimulated with a train of ten step depolarizations to +20 mV (HP=−80 mV). Each step depolarization lasted 150 ms and was separated by 400 ms interpulse duration. Capacitance measurements were carried out in the perforated whole-cell configuration. The data were collected at a 500 μsec sampling rate and filtered at 5 kHz. Recordings with series resistance >20 MΩ were discarded. Series resistance compensation was applied in all recordings.
The recording solution for the capacitance measurements contained (in mM): 130 NaCl, 2 glucose, 10 Na-HEPES, 1 MgCl2, 2 KCl, and 5 CaCl2, pH 7.3 with NaOH. The pipette solution contained (in mM): 135 Cs-glutamate, 10 Na-HEPES, 9.5 NaCl, 0.5 TEACl, and 0.5 CaCl2, pH7.3 with CsOH. The pipettes were backfilled with an identical solution to which amphotericin B (final concentration of 0.5 mg/ml) was added and then sonicated. The amphotericin B stock solution (125 mg/ml) was kept frozen at −20° C. and used for one week. ALLM pre-treatment was as described above (see patch-clamp electrophysiology section). All electrophysiological recordings were carried out at room temperature (22-24° C.)

mouse islets [1] = assay: Measurement of islet [Ca2+]i (Fura-2); assay type: cell-based
Protocol: (§1) Measurement of islet [Ca^2+]i, and NAD(P)H. Islet [Ca^2+]i and NAD(P)H were measured as previously described (Pontoglio et al., 1998; Dukes et al., 1998).
Insulin secretory responses to glucose and most other secretagogues is mediated by a rise in intracellular free calcium ([Ca^2+]i). We therefore measured [Ca^2+]i responses to glucose, KIC and KCl using Fura-2 as the Ca^2+ indicator. In comparison to the responses from the control islets, the most prominent abnormality in [Ca^2+]i responses to glucose and KIC was a delay of the [Ca^2+]i responses (FIG. 21). The mean time interval between administration of 14 mM glucose and the point of half maximal response (T1/2.) was 120±14 seconds in control islets. […] There was no delay in the appearance of [Ca^2+]i response to KCl, nor was the magnitude of the response reduced.

mouse islets [2] = assay: Glucose utilization and oxidation rates in islets; assay type: cell-based
Protocol: Glucose utilization and oxidation rates. Glucose utilization and oxidation rates were measured as previously described (Dukes et al., 1998; Zhou et al., 1996) in mouse islets cultured as described above in the presence or absence of calpain inhibitors.

mouse islets [3] = assay: Islet NAD(P)H autofluorescence response; assay type: cell-based
Protocol: as §1

calpain = assay: Calpain activity in mouse pancreatic islets (Boc-Leu-Met-CMAC cleavage); assay type: cell-based
rat adipocytes = assay: 2-Deoxyglucose uptake into adipocytes; assay type: cell-based; conditions: 100 μM ALLM or 200 μM E-64-d
Protocol: Adipocytes were isolated from epididymal fat pads of 3 month old male Wistar rats as described previously (Robdell, 1964) with the following modification: fat pads were minced to 1-2 mm pieces and incubated for ˜25 min at 37° C. with collagenase I (1 mg/ml, Worthington Biochemicals, Lakewood, N.J.) in KRB containing 10 mM Hepes (pH 7.4), 0.2% BSA and 2 mM sodium pyruvate. The cell suspension was filtered through a nylon mesh (134 μM, Spectrum Lab., Laguna Hills, Calif.) washed three times by floating and allowed to rest for 45 min in the KRB. […] Then another 50 μl of KRB containing 5 mM 2-DOG (final concentration 1 mM), 0.5 μCi of 2-deoxy-[2,6-^3H]glucose was added and cells were incubated for a further 5 min at 25° C. The transport was stopped by adding cytochalasin B (final concentration 50 μM) and cells were spun through 250 μl of dinonyl phthalate oil (Fisher Scientific, Pittsburgh, Pa.). Cells were then transferred to scintillation vials for counting.

rat soleus muscle strips = assay: 2-Deoxyglucose uptake into soleus muscle strips; assay type: cell-based; conditions: 100 μM ALLM or 200 μM E-64-d
Protocol: 2-Deoxyglucose uptake into skeletal muscle and adipose tissue. 2-deoxyglucose (2-DOG) uptake by isolated strips of soleus muscle from normal Wistar rats was measured using a modification of a previously described protocol (Burant et al., 1984). […] Muscles were then extracted and 2-DOG uptake calculated as previously described (Burant et al., 1984).

soleus muscle strips = assay: Glycogen synthesis rates in skeletal muscle; assay type: cell-based, rat; conditions: 100 μM ALLM or 200 μM E-64-d
From the text: Glycogen synthesis rates in skeletal muscle.

islets = assay: Insulin content of islets after 48 h inhibitor exposure; assay type: cell-based, mouse; conditions: 48 hours treatment

CC(=O)N[C@@H](CC(C)C)C(=O)N[C@H](C(=O)N[C@H](C=O)CCCCN)C(C)C [Cath B Inhibitor II] (Ac-Leu-Val-Lys-aldehyde)
insulin secretory responses to 20 mM glucose in presence of other protease inhibitors (mouse pancreatic islets): not altered | effect on basal or glucose-stimulated insulin secretion (mouse pancreatic islets; 48 h): did not significantly affect

MDL28170
inhibition of 20 mM glucose-stimulated insulin secretion (mouse pancreatic islets; 48 h, 100 μM ALLM (so in the source), 50 μM MDL28170): approximately 60%

CC(C)CC(=O)N[C@H](C(=O)N[C@H](C(=O)N[C@@H](CC(C)C)[C@@H](O)CC(=O)N[C@@H](C)C(=O)N[C@@H](CC(C)C)[C@@H](O)CC(=O)O)C(C)C)C(C)C [pepstatin A] (Isovaleryl-VV[Sta]A[Sta]-OH)
insulin secretory responses to 20 mM glucose in presence of other protease inhibitors (mouse pancreatic islets): not altered

CCOC(=O)[C@H]1O[C@@H]1C(=O)N[C@@H](CC(C)C)C(=O)NCCC(C)C [E-64-d, ethyl (+)-(2S,3S)-3-[(S)-3-Methyl-1-(3-methylbutylcarbamoyl)butyl-carbamoyl]-2-oxiranecarboxylate]
insulin secretory response to 20 mM glucose after recovery (mouse pancreatic islets; 48-h treatment, then 2 days recovery without inhibitor): essentially normal insulin secretory response | effect on insulin secretion at 2 mM glucose (mouse pancreatic islets; 4 hr exposure, ALLM 250 μM, E-64-d 200 μM, 2 mM glucose): not observed | basal insulin secretion (2 mM glucose) vs control-treated islets (mouse pancreatic islets; 48 hours exposure): no significant difference | insulin secretory response to 30 mM KCl (mouse pancreatic islets; 48 h treated islets): significantly reduced | insulin secretory response to carbachol (mouse pancreatic islets; 48 h treated islets): attenuated | insulin secretory response to glyceraldehyde (mouse pancreatic islets; 48 h treated islets): responded normally | insulin secretory response to mastoparan (mouse pancreatic islets; 48 h treated islets): attenuated | insulin-secretory response to keto-isocaproic acid (KIC) (mouse pancreatic islets; 48 h treated islets): decreased | insulin secretory responses to glucose (summary statement of Example 8) (mouse pancreatic islets; isolated mouse islets, introductory summary, no conditions given): increase in glucose induced insulin secretion | enhancement of insulin secretory response to 20 mM glucose in dynamic islet perifusion (perifused mouse islets): also observed | rates of exocytosis in β-cells (isolated β-cells): significantly lower rates of exocytosis | [Ca2+]i response to high glucose (mouse islets [1]; 4 hr preincubation, 14 mM glucose): not associated with increases in [Ca^2+]i | [Ca2+]i response to glucose ramp (2 to 26 mM over 48 mins) (mouse islets [1]; 48 h treated islets): diminished | [Ca2+]i responses to 30 mM KCl vs control (mouse islets [1]; 48 h treated islets): not different | integrated [Ca2+]i responses (area under the curves) to glucose and KIC vs control (mouse islets [1]; 48 h treated islets): significantly smaller | T1/2 of [Ca2+]i response to 14 mM glucose (time to half maximal response) (mouse islets [1]; 48 h treated islets, control 120±14 seconds): 4.42 ± 1.08 min | T1/2 of [Ca2+]i response to KIC (mouse islets [1]; 48 h treated islets, control 125±9): 5.5 ± 0.12 min | rate of glucose utilization at basal glucose (mouse islets [2]; 2 mM glucose, 100 μM ALLM or 200 μM E-64-d, 4 h): 15.5±4 pmol/islet/hr | rate of glucose utilization at stimulatory glucose (mouse islets [2]; 20 mM glucose, 100 μM ALLM or 200 μM E-64-d, 4 h): 79.5±9.5 pmol/islet/hr | rate of basal glucose utilization and oxidation at 3.3 mM glucose (mouse islets [2]; 48 h treated islets): no significant changes | rates of glycolysis and glucose oxidation at stimulating concentrations of glucose (mouse islets [2]; 48 h treated islets vs controls): significantly reduced | glucose oxidation rate at basal glucose (mouse islets [2]; basal glucose, ALLM or E-64-d, 4 h): 5.2±0.4 pmol/islet/hr | glucose oxidation rate at stimulatory glucose (mouse islets [2]; stimulatory glucose, ALLM or E-64-d, 4 h): 40.0±2.4 pmol/islet/hr | NAD(P)H response to increase in glucose from 2 to 14 mM (mouse islets [3]; 100 μM ALLM or E-64-d, 4 hr preincubation): 2.8±0.3 fold increase | NAD(P)H responses to KIC vs control (mouse islets [3]; 48 h treated islets): significantly reduced | NAD(P)H responses to glucose vs control (mouse islets [3]; 48 h treated islets): comparable | area under the curve of rate of generation of fluorescent calpain product (calpain; 200 μM inhibitor, 4 hr incubation): 45±5 % of control values | residual calpain activity in intact islets (calpain; 48 h treatment, 100 μM ALLM or 200 μM E-64-d): 55±4 % of control treated islets | 2-DOG uptake into adipocytes with insulin (rat adipocytes; insulin 12 nmol/L): 749±129 pmol/2×10^5 cells/5 min | 2-DOG uptake into adipocytes without insulin (rat adipocytes; no insulin): 361±29 pmol/2×10^5 cells/5 min | 2-deoxyglucose uptake into soleus muscle strips with insulin (rat soleus muscle strips; insulin 12 nM): 0.36±0.02 (mol/ml H20/30 mins | 2-deoxyglucose uptake into soleus muscle strips without insulin (rat soleus muscle strips; no insulin): 0.31±0.02 (mol/ml H20/30 mins | magnitude of insulin-induced increase in muscle glycogen synthesis (soleus muscle strips; insulin 6 nM): 0.31±0.09 nmol glucose/mg/hr | rate of muscle glycogen synthesis with insulin (soleus muscle strips; insulin 6 nM): 0.80±0.14 nmol glucose/mg/hr | rate of muscle glycogen synthesis without insulin (soleus muscle strips; no insulin): 0.49±0.08 nmol glucose/mg/hr | insulin content in islets vs control islets (islets): comparable

CC(=O)N[C@@H](CSC(=O)[C@]1([C@@H](O)C(C)C)NC(=O)[C@H](C)[C@@H]1O)C(=O)O [Lactacystin]
effect on basal or glucose-stimulated insulin secretion (mouse pancreatic islets; 48 h): did not significantly affect
